Measurements: paper PMC8742467, “Therapeutical interference with the epigenetic landscape of germ cell tumors: a comparative drug study and new mechanistical insights” (Clinical Epigenetics, 2022)
pEC50: −log10 of the molar value. Read-outs that look alike come from different tables or passages of the source.

How the values were obtained:
Sertoli cells FS1 (SC) = assay: XTT cell viability assay, Sertoli cells; type: cell-based; details: Homo sapiens; after 48 h
Description: (§1) The […] (XTT) assays were performed as described previously. In summary, for GCT and fibroblast cell lines 5 × 10^3 cells (3 × 10^3 for UC, PCa and RCC cell lines) per 96-well were seeded and different drug concentrations (see Additional file 2: Fig. S2, Additional file 3: Fig. S3) or corresponding solvents were added to the cells the following day. For drug details see Additional file 12: Table S2 C. Each condition was analyzed in four technical replicates and EC50 values were calculated by GraphPad Prism v8.

[1] = test system: fibroblasts (MPAF, HVHF2); assay: XTT cell viability assay, fibroblasts; type: cell-based; details: Homo sapiens, Fibroblast; after 48 h, mean
Description: as §1

[2] = test system: YST (yolk-sac tumor) cell lines; assay: XTT cell viability assay, mean per entity YST; type: cell-based; details: Homo sapiens, after 48 h
Description: as §1

GCT cell lines = assay: XTT cell viability assay, GCT cell lines (pre-screen / summary); type: cell-based, Human; details: for EC50 / effective concentration in words: SE and EC proxies TCam-2 and 2102EP
Method in brief: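 GCT cells seeded at 5 × 10^3/well, UC lines at 3 × 10^3/well; drug dilution series or solvent added next day. Viability read by XTT, four technical replicates per condition; EC50 calculated from concentration–response data.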

[3] = test system: SE-R (cisplatin-resistant seminoma subclone); assay: XTT cell viability assay, mean per entity SE-R; type: cell-based; details: Homo sapiens, after 48 h
Description: as §1

SE (seminoma) cell lines = assay: XTT cell viability assay, mean per entity SE; type: cell-based; details: Homo sapiens, after 48 h
Description: as §1

[4] = test system: phosphorylated kinase targets in 2102EP cells; assay: Proteome Profiler Human Phospho-Kinase Array; type: cell-based; details: 16 h
Description: For the detection of phosphorylated kinase targets, the Proteome Profiler Human Phospho-Kinase Array Kit (R&D Systems, Abingdon, UK) was used according to the manufacturer’s instructions. The ChemiDoc Imaging System (Bio-Rad Laboratories, Feldkirchen, Germany) was used for detection. 2102EP cells were harvested after 16 h of treatment with the epi-drugs. Pixel density was analyzed using Fiji ImageJ 1.53c.

TCam-2 (SE) = assay: XTT cell viability assay, TCam-2; type: cell-based; details: Homo sapiens, read-out: EC50 colour/symbol code, SE TCam-2
Description: as §1

JAR (CC) = assay: XTT cell viability assay, JAR; type: cell-based; details: Homo sapiens, after 48 h, n = 4, read-out: EC50 colour/symbol code, CC JAR
Description: as §1

[5] = test system: EC (embryonal carcinoma) cell lines; assay: XTT cell viability assay, mean per entity EC; type: cell-based; details: Homo sapiens, after 48 h
Description: as §1

[6] = test system: transcriptome of 2102EP cells; assay: RNA sequencing; type: cell-based, Human; details: 16 h; for A1BG Log2 fold change vs. DMSO / A1CF Log2 fold change vs. DMSO / A2M Log2 fold change vs. DMSO: unsorted data
Method in brief: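 Transcriptome of 2102EP cells sequenced; differential expression between two groups tested with p values FDR-corrected for multiple testing. Solvent-control values averaged across three datasets (GSE189472, GSE190792, GSE190022).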

[7] = Homo sapiens, GCT, cell line not stated, read-out: EC50 concentration used for low dose qRT-PCR
[8] = sorted data log2>±1.5, FDR p<0.05

pEC50 [2] | pEC50 [3] | pEC50 (SE (seminoma) cell lines) | Compound | pEC50 (Sertoli cells FS1 (SC)) | pEC50 [1] | pEC50 (GCT cell lines; [7]) | EC50 / effective concentration in words (GCT cell lines; first pre-screen, XTT) | CREB, STAT3 and STAT5 phosphorylation and total levels of β-Catenin and HSP60 [4] | p53 S15 phosphorylation [4] | pEC50 (JAR (CC)) | pEC50 [5] | A1BG Log2 fold change vs. DMSO [6] | A1CF Log2 fold change vs. DMSO [6] | A2M Log2 fold change vs. DMSO [6] | ERK1/2 phosphorylation [4] | pEC50 (TCam-2 (SE); after 48 h, XTT, n = 4) | EIF3CL Log2 fold change vs. DMSO [6, 8] | further results
5.21 | 5.00 | 4.92 | CCCc1cc(C)[nH]c(=O)c1CNC(=O)c1cc(-c2ccnc(N3CCN(C)CC3)c2)cc2c1cnn2C(C)C [GSK343] | 4.97 | 5.01 | 4.97 |  | decreased |  | 4.30 to 6.00 | 4.98 | -0.54 | -2.01 | -0.59 | decreased | 4.30 to 6.00 |  | pEC50 (GCT cell lines; Homo sapiens, GCT, first pre-screen, XTT, read-out: EC50): ≥ 4.30; CSF1R Log2 fold change vs. DMSO [6, 8]: 3.81; FOSB Log2 fold change vs. DMSO [6, 8]: 3.96; GOLGA6D Log2 fold change vs. DMSO [6, 8]: -4.42; SCNN1B Log2 fold change vs. DMSO [6, 8]: -4.06; TAC1 Log2 fold change vs. DMSO [6, 8]: 3.59; UMODL1 Log2 fold change vs. DMSO [6, 8]: -3.29
 |  |  | O=C1C(=Cc2cccnc2)C(=O)c2ccccc21 [PRT4165] |  |  |  |  | decreased |  |  |  | -0.25 | 0.91 | 1.71 | decreased |  | -2.52 | pEC50 (GCT cell lines; first pre-screen, XTT, read-out: EC50): ≥ 4.30; BST2 Log2 fold change vs. DMSO [6, 8]: -2.05; MMP1 Log2 fold change vs. DMSO [6, 8]: 6.18; MMP10 Log2 fold change vs. DMSO [6, 8]: 6.89; PPFIA4 Log2 fold change vs. DMSO [6, 8]: -2.26; SPANXA1 Log2 fold change vs. DMSO [6, 8]: 5.74
8.16 | 7.88 | 8.02 | Cn1cc(CNCC2CCN(c3ncc(C(=O)NO)cn3)CC2)c2ccccc21 [Quisinostat] | 8.20 | < 7.30 | 8.75 | nanomolar range | decreased | no alteration | > 6.00 | 7.94 | 1.07 | 2.77 | -0.10 |  | > 6.00 | -3.69 | HBA1 Log2 fold change vs. DMSO [6, 8]: 5.01; IL13RA2 Log2 fold change vs. DMSO [6, 8]: -2.69; LYST Log2 fold change vs. DMSO [6, 8]: -2.73; TSPY4 Log2 fold change vs. DMSO [6, 8]: 5.17; TTC9B Log2 fold change vs. DMSO [6, 8]: 4.98

Compound | pEC50 [2] | pEC50 [3] | pEC50 (SE (seminoma) cell lines) | pEC50 (Sertoli cells FS1 (SC)) | pEC50 [1] | pEC50 (GCT cell lines; [7]) | EC50 / effective concentration in words (GCT cell lines; first pre-screen, XTT) | CREB, STAT3 and STAT5 phosphorylation and total levels of β-Catenin and HSP60 [4] | p53 S15 phosphorylation [4] | pEC50 (JAR (CC)) | pEC50 [5] | A1BG Log2 fold change vs. DMSO [6] | A1CF Log2 fold change vs. DMSO [6] | A2M Log2 fold change vs. DMSO [6] | ERK1/2 phosphorylation [4] | pEC50 (TCam-2 (SE); after 48 h, XTT, n = 4) | EIF3CL Log2 fold change vs. DMSO [6, 8] | further results
CN1C(=O)[C@@]23C[C@]4([C@]56C[C@@]78SS[C@@](CO)(C(=O)N7[C@H]5Nc5ccccc56)N(C)C8=O)c5ccccc5N[C@@H]4N2C(=O)[C@]1(CO)SS3 [Chaetocin] | 7.01 | 6.66 | 6.91 | 7.16 | 6.86 | 6.76 | nanomolar range | decreased | increased | > 6.00 | 6.89 | 0.04 | -2.02 | 1.33 |  |  |  | pEC50 (TCam-2 (SE); 48 h): > 6.00; ATP1A2 Log2 fold change vs. DMSO [6, 8]: -3.26; CASQ1 Log2 fold change vs. DMSO [6, 8]: -2.99; DLX5 Log2 fold change vs. DMSO [6, 8]: 5.91; DLX6 Log2 fold change vs. DMSO [6, 8]: 5.90; POU2F3 Log2 fold change vs. DMSO [6, 8]: -2.99; SERPINB3 Log2 fold change vs. DMSO [6, 8]: 6.77
